# According to patent publication US6365607B1, “Anticachectic composition” (Takeda Chemical Industries, Ltd., priority 1996, dated 2002):
# Read-outs that look alike come from different tables or passages of the source.
# What was measured:
# [1] = test system: tumor-bearing mice (mouse colon cancer cell line Colon 26); assay: Weight loss inhibitory activity in tumor-bearing mice (Colon 26 cachexia model); assay type: in vivo; details: CDF1 mice
# Protocol: Using the mouse colon cancer cell line Colon 26 (Tanaka et al., Cancer Research, 50, 4528-4532 (1990)), which is a system known to be high in the reproducibility of cancer cachectic symptoms, the inhibitory effect of the compound of the present invention on lipolysis and body weight loss was evaluated.
# Thus, 1×10^6 Colon 26 cells were transplanted sub-dermaly in 4-week-old CDF1 mice. On day 14 after transplantation, the mice were divided into groups according to tumor size. A 5% (w/v) gum arabic suspension containing compound (2) was administered orally in a dose of 1.0 mg/kg to one group of mice and, as a control, a 5% (w/v) gum arabic suspension was similarly administered to another group, once daily for 7 days in each case. An additional group of mice was not transplanted with Colon 26 cells (normal group). On days 14, 18 and 21 after transplantation, the mice were weighed. On day 22 after transplantation, each mouse was autopsied and the epididymis adipose tissue was isolated and weighed. Changes in mouse body weight and adipose tissue weight are shown in Table 1 and Table 2, respectively.
# [2] = test system: fat cells in rat epididymis adipose tissue; assay: Antilipolytic activity: glycerol released from IL-1β-treated rat fat cells; assay type: cell-based; details: read-out: antilipolytic concentration IC50
# Protocol: In accordance with the method of Green et al. [Endocrinology, 134, 2581-2588 (1994)], the antilipolytic activity of the compound of the present invention was evaluated by quantitating the glycerol released from fat cells in rat epididymis adipose tissue.
# Thus, the rat epididymis adipose tissue was isolated, cut into pieces with a pair of scissors, and digested into fat cells by agitating in collagenase-containing phosphate buffer for 1 hour. To a culture solution containing fat cells was added 10 ng/ml of IL-1β (manufactured by Pharmingen, PM-19101V). Then, in treatment groups, solutions of compound (2) in N,N-dimethylformamide at graded concentrations were respectively added. After 24 hours, the supernatant was recovered and the glycerol therein was quantitated with an assay kit (manufactured by Sigma, 337-A). The amount of released glycerol in each group treated with compound (2) relative to that in the control group was determined to find the inhibition rate and the 50% inhibition concentration IC50 of the compound was calculated. The antilipolytic concentration IC50 value of compound (2) was 4 nM.
# The antilipolytic activity of indomethacin was evaluated by the same method as in Test Example 1. The antilipolytic concentration IC50 value of indomethacin was not less than 10 mM.
"IC50 ([2]; inhibition of glycerol release, 10 ng/ml IL-1β, 24 hours) [µM]","IC50 ([2]; same method as Test Example 1 (glycerol release, IL-1β, 24 hours)) [µM]",Compound,"body weight of tumor-bearing mice, 21st Day after transplantation ([1]; 1.0 mg/kg orally once daily for 7 days from day 14) [g]","body weight of tumor-bearing mice, 18th Day after transplantation ([1]; 1.0 mg/kg orally once daily from day 14) [g]","body weight of tumor-bearing mice, 14th Day after transplantation ([1]; day 14 (grouping, start of dosing), 1.0 mg/kg orally once daily for 7 days) [g]"
0.004,,"Cc1oc(-c2ccccc2)nc1C(O)COc1ccc(CC2SC(=O)NC2=O)cc1 (centres unmarked) [compound (2), 5-[4-[2-hydroxy-2-(5-methyl-2-phenyl-4-oxazolyl)ethoxy]benzyl]-2,4-thiazolidinedione]",25.6,26.3,26.3
,≥ 10000,"COc1ccc2c(c1)c(CC(=O)O)c(C)n2C(=O)c1ccc(Cl)cc1 [indomethacin, reference compound]",,,
